According to patent US20250051338A1, “TYK2 DEGRADERS AND USES THEREOF” (Kymera Therapeutics, Inc., priority 2021, published 2025):

Columns and labels:
Type in all cases: cell-based
TYK2 [1] = target: T1, TYK2 (Homo sapiens, UniProt P29597); assay: TYK2 degradation MSD assay in human PBMC cells; set-up: endogenous in cells; host or cells: human PBMC; details: 4 to 24 hours incubation, read-out: TYK2 MSD DC50 rating in human PBMC
Summary of the method: (§1)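 TYK2 levels in lysed cells, detected via antibody capture and SULFO-TAG electrochemiluminescence, were compared across a nine-point threefold compound dilution (highest 1 to 10 μM) after 4–24 h culture at 37° C under 5% CO2. Four-parameter nonlinear regression of the dose response yielded DC50.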

TYK2 [2] = target: T1, TYK2; assay: TYK2 degradation MSD assay in EBV-B cells; set-up: endogenous in cells; host or cells: EBV-B cells; details: 4 to 24 hours incubation, read-out: TYK2 MSD DC50 rating in EBV-B
Summary of the method: as §1

TYK2 [3] = target: T1, TYK2; assay: TYK2 degradation MSD assay in OCI-LY10 cells; set-up: endogenous in cells; host or cells: EBV-B cells; details: 4 to 24 hours incubation, read-out: TYK2 MSD DC50 rating in OCI-LY10
Summary of the method: as §1

T1 sequence (P29597 whole entry): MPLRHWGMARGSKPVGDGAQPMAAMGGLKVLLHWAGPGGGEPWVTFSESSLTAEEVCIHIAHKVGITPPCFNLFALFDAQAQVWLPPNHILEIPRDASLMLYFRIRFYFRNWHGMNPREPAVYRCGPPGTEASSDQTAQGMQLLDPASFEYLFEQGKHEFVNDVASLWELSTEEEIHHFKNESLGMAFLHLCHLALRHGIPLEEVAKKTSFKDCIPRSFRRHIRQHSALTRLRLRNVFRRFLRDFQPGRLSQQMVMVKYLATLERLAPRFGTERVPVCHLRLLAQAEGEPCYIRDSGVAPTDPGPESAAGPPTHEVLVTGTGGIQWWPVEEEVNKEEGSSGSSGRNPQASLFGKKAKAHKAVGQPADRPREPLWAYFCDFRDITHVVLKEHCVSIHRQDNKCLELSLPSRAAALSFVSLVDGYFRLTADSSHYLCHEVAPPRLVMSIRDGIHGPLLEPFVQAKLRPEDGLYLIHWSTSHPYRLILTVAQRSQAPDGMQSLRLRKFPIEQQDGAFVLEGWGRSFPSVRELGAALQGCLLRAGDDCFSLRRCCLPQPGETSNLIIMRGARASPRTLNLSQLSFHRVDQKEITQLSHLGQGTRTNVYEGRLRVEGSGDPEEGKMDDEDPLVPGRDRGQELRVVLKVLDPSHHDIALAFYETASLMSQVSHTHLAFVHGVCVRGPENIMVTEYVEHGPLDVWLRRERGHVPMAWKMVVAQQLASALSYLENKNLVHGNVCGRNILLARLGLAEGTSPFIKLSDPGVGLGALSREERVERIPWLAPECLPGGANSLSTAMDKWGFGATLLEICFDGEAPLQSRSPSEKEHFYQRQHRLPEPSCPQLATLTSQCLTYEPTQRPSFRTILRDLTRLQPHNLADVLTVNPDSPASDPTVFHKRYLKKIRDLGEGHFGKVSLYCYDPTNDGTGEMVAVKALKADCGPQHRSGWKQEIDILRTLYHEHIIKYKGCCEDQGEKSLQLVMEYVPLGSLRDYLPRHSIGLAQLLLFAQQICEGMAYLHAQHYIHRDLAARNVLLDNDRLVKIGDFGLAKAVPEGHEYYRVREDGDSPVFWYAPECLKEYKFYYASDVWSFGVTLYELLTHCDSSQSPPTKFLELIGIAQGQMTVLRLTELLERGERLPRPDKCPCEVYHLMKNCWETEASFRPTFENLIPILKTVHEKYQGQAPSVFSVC

SMILES | DC50 (TYK2 [1]) [nM] | DC50 (TYK2 [2]) [nM] | DC50 (TYK2 [3]) [nM]
CNc1cc(Nc2cccc(C(=O)NCCCCc3cccc4c3n(C)c(=O)n4C3CCC(=O)NC3=O)c2)nn2c(C(=O)N[C@@H]3C[C@@H]3F)cnc12 (stereo partly drawn) [Example K248] | > 100 | > 100 | > 100
CNC(=O)c1cnc(Nc2ccc(C(=O)N(C)C3CCN(c4ccc5c(c4)n(C)c(=O)n5C4CCC(=O)NC4=O)CC3)cn2)cc1Nc1ccccc1OC (stereo not drawn) [Example K133] | > 100 | 1 to 10 | > 100
CNc1cc(Nc2cccn(-c3ccc(C(=O)N4CC5(CCN(c6ccc(-c7ccc8c(c7)n(C)c(=O)n8C7CCC(=O)NC7=O)cn6)CC5)C4)cn3)c2=O)nn2c(C(=O)N[C@@H]3C[C@@H]3F)cnc12 (stereo partly drawn) [Example K383] | < 1 | < 1 | > 100
